In patent US20060040925A1, “Aminocyclohexene quinolines and their azaisosteric analogues with antibacterial activity” (priority 2002, published 2006):
Where a name gives a salt, the structure may show the parent alone. Read-outs that look alike come from different tables or passages of the source.

Experiment: MIC of test compounds against various organisms
Format: cell-based
Protocol: The MIC (μg/ml) of test compounds against various organisms was determined including: S. epidermidis CL7, S. aureus WCUH29, S. pneumoniae 1629, S. pyogenes CN10, H. influenzae ATCC 49247, E.faecalis 2, M. catarrhalis Ravasio, E. coli 7623.

[1] = versus all these organisms (the eight strains of b406), read-out: MIC
[2] = versus some of these organisms (of the eight strains; which ones not given), read-out: MIC

Row | SMILES | MIC [2] [µg/mL] | other results
1 | COc1ccc2nccc(NC(=O)[C@]3(O)C=C[C@@H](NCc4ccc5c(n4)NC(=O)CS5)CC3)c2n1 (racemic) [Example 1, (1R,4S)-1-Hydroxy-4-[(3-oxo-3,4-dihydro-2H-pyrido[3,2-b][1,4]thiazin-6-ylmethyl)-amino]-cyclohex-2-enecarboxylic acid (6methoxy-[1,5]naphthyridin-4-yl)-amide dihydrochloride and (1S,4R)-1-Hydroxy-4-[(3-oxo-3,4-dihydro-2H-pyrido[3,2-b][1,4]thiazin-6-ylmethyl)-amino]-cyclohex-2-enecarboxylic acid (6-methoxy-[1,5]naphthyridin-4-yl)-amide dihydrochloride] | – | MIC: ≤ 2 µg/mL
2 | COc1ccc2nccc(NC(=O)[C@]3(O)C=C[C@@H](NCc4ccc5c(n4)NC(=O)CO5)CC3)c2n1 (racemic) [Example 2, (1R,4S)-1-Hydroxy-4-[(3-oxo-3,4-dihydro-2H-pyrido[3,2-b][1,4]oxazin-6-ylmethyl)-amino]-cyclohex-2-enecarboxylic acid (6-methoxy-[1,5]naphthyridin-4-yl)-amide dihydrochloride and (1S,4R)-1-Hydroxy-4-[(3-oxo-3,4-dihydro-2H-pyrido[3,2-b][1,4]oxazin-6-ylmethyl)-amino]-cyclohex-2-enecarboxylic acid (6-methoxy-[1,5]naphthyridin-4-yl)-amide dihydrochloride] | – | MIC: ≤ 2 µg/mL
3 | COc1ccc2nccc(NC(=O)[C@@]3(O)C=C[C@H](NCc4cc5c(cn4)OCCO5)CC3)c2n1 [Example 3] | – | MIC [1]: ≤ 2 µg/mL
4 | COc1ccc2nccc(NC(=O)[C@@]3(O)C=C[C@H](NCc4cnc5c(c4)OCCO5)CC3)c2n1 [Example 5] | – | MIC [1]: ≤ 2 µg/mL
5 | COc1ccc2nccc(NC(=O)[C@@]3(O)C=C[C@H](NCc4ccc5c(n4)OCCO5)CC3)c2n1 [Example 6] | ≤ 1 | –
6 | COc1ccc2nccc(NC(=O)[C@@]3(O)C=C[C@H](NCc4ncc5c(n4)OCCO5)CC3)c2n1 [Example 7] | ≤ 1 | –
7 | COCCOc1c(F)ccc2nccc(NC(=O)[C@@]3(O)C=C[C@H](NCc4cc5c(cn4)OCCO5)CC3)c12 [Example 11] | ≤ 1 | –
8 | COc1ccc2nccc(NC(=O)[C@@]3(O)C=C[C@H](NCc4cc5c(cn4)OCCO5)CC3)c2c1F [Example 12] | ≤ 1 | –
